Test results from ChEMBL document CHEMBL3608278 (J Med Chem, 2015).

Key:
[1] = molecular target: T1, Potassium voltage-gated channel subfamily A member 3 (Homo sapiens, UniProt P22001); format: cell-based, CHO-K1
[2] = molecular target: T1, Potassium voltage-gated channel subfamily A member 3; assay: cell-based; design: species or system Blood
[3] = molecular target: T1, Potassium voltage-gated channel subfamily A member 3; design: species or system Blood

T1 sequence (P22001 whole entry): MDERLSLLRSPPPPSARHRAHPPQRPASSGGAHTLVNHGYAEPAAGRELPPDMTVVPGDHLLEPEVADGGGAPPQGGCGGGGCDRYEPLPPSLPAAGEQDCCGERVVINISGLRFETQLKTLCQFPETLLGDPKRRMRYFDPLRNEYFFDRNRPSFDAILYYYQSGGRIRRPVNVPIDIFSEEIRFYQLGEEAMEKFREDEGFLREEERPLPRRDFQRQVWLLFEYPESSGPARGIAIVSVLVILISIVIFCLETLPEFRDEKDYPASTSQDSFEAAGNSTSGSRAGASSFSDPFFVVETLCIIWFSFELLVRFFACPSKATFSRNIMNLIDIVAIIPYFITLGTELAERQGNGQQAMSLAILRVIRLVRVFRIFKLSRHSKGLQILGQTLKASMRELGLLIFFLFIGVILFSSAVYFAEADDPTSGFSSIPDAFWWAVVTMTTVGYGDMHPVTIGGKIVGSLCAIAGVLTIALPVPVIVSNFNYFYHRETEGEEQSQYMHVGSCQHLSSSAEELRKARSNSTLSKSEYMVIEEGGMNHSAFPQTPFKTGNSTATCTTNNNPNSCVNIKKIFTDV

Structure (SMILES)	IC50 [1] [nM]	IC50 [2] [nM]	IC50 [3] [nM]
CC[C@H](C)[C@@H]1NC(=O)[C@@H](NC(=O)[C@H](CO)NC(=O)[C@@H](N)CCCNC(=N)N)CSSC[C@@H](C(=O)O)NC(=O)[C@H]([C@@H](C)O)NC(=O)CNC(=O)[C@@H]2CSSC[C@@H]3NC(=O)[C@H](CCC(N)=O)NC(=O)[C@H](Cc4ccccc4)NC(=O)[C@H](C)NC(=O)[C@H]([C@@H](C)O)NC(=O)[C@H](CSSC[C@H](NC(=O)[C@H](Cc4ccccc4)NC(=O)[C@H](CO)NC(=O)[C@H](CC(C)C)NC(=O)[C@H](CCCNC(=N)N)NC(=O)[C@H](Cc4ccc(O)cc4)NC(=O)[C@H](CCCCN)NC(=O)[C@H](CCSC)NC(=O)[C@H](CCC(=O)O)NC(=O)[C@H](Cc4cnc[nH]4)NC(=O)[C@H](CCCCN)NC3=O)C(=O)N[C@@H](CCCNC(=N)N)C(=O)N[C@@H](CCCCN)C(=O)N[C@@H]([C@@H](C)O)C(=O)N2)NC(=O)[C@H](CCCNC(=N)N)NC(=O)[C@H](CO)NC(=O)[C@H](CCCCN)NC(=O)[C@@H]2CCCN2C(=O)[C@H]([C@@H](C)CC)NC(=O)[C@H]([C@@H](C)O)NC(=O)[C@H](CC(=O)O)NC1=O	> 3.33	> 92	> 92
CC[C@H](C)[C@@H]1NC(=O)[C@@H](NC(=O)[C@H](CO)NC(=O)[C@@H](N)CCCNC(=N)N)CSSC[C@@H](C(=O)O)NC(=O)[C@H]([C@@H](C)O)NC(=O)CNC(=O)[C@@H]2CSSC[C@@H]3NC(=O)[C@H](CCC(N)=O)NC(=O)[C@H](Cc4ccccc4)NC(=O)[C@H](C)NC(=O)[C@H]([C@@H](C)O)NC(=O)[C@H](CSSC[C@H](NC(=O)[C@H](Cc4ccccc4)NC(=O)[C@H](CO)NC(=O)[C@H](CC(C)C)NC(=O)[C@H](CCCNC(=N)N)NC(=O)[C@H](Cc4ccc(O)cc4)NC(=O)[C@H](CCCCN)NC(=O)[C@H](CCC(=O)O)NC(=O)[C@H](CO)NC(=O)[C@H](Cc4cnc[nH]4)NC(=O)[C@H](CCCCN)NC3=O)C(=O)N[C@@H](CCCNC(=N)N)C(=O)N[C@@H](CCCCN)C(=O)N[C@@H]([C@@H](C)O)C(=O)N2)NC(=O)[C@H](CCCNC(=N)N)NC(=O)[C@H](CO)NC(=O)[C@H](CCCCN)NC(=O)[C@@H]2CCCN2C(=O)[C@H]([C@@H](C)CC)NC(=O)[C@H]([C@@H](C)O)NC(=O)[C@H](CC(=O)O)NC1=O	> 3.33	18.5	28.1
CC[C@H](C)[C@@H]1NC(=O)[C@@H](NC(=O)[C@H](CO)NC(=O)[C@@H](N)CCCNC(=N)N)CSSC[C@@H](C(=O)O)NC(=O)[C@H]([C@@H](C)O)NC(=O)CNC(=O)[C@@H]2CSSC[C@@H]3NC(=O)[C@H](CCC(N)=O)NC(=O)[C@H](Cc4ccccc4)NC(=O)[C@H](C)NC(=O)[C@H]([C@@H](C)O)NC(=O)[C@H](CSSC[C@H](NC(=O)[C@H](Cc4ccccc4)NC(=O)[C@H](CO)NC(=O)[C@H](CC(C)C)NC(=O)[C@H](CCCNC(=N)N)NC(=O)[C@H](Cc4ccc(O)cc4)NC(=O)[C@H](CCC(=O)O)NC(=O)[C@H](CCSC)NC(=O)[C@H](CO)NC(=O)[C@H](Cc4cnc[nH]4)NC(=O)[C@H](CCCCN)NC3=O)C(=O)N[C@@H](CCCNC(=N)N)C(=O)N[C@@H](CCCCN)C(=O)N[C@@H]([C@@H](C)O)C(=O)N2)NC(=O)[C@H](CCCNC(=N)N)NC(=O)[C@H](CO)NC(=O)[C@H](CCCCN)NC(=O)[C@@H]2CCCN2C(=O)[C@H]([C@@H](C)CC)NC(=O)[C@H]([C@@H](C)O)NC(=O)[C@H](CC(=O)O)NC1=O	> 3.33	> 100	> 100
CC[C@H](C)[C@@H]1NC(=O)[C@@H](NC(=O)[C@H](CO)NC(=O)[C@@H](N)CCCNC(=N)N)CSSC[C@@H](C(=O)O)NC(=O)[C@H]([C@@H](C)O)NC(=O)CNC(=O)[C@@H]2CSSC[C@@H]3NC(=O)[C@H](CCC(N)=O)NC(=O)[C@H](Cc4ccccc4)NC(=O)[C@H](C)NC(=O)[C@H]([C@@H](C)O)NC(=O)[C@H](CSSC[C@H](NC(=O)[C@H](Cc4ccccc4)NC(=O)[C@H](CO)NC(=O)[C@H](CC(C)C)NC(=O)[C@H](CCCNC(=N)N)NC(=O)[C@H](CCC(=O)O)NC(=O)[C@H](CCCCN)NC(=O)[C@H](CCSC)NC(=O)[C@H](CO)NC(=O)[C@H](Cc4cnc[nH]4)NC(=O)[C@H](CCCCN)NC3=O)C(=O)N[C@@H](CCCNC(=N)N)C(=O)N[C@@H](CCCCN)C(=O)N[C@@H]([C@@H](C)O)C(=O)N2)NC(=O)[C@H](CCCNC(=N)N)NC(=O)[C@H](CO)NC(=O)[C@H](CCCCN)NC(=O)[C@@H]2CCCN2C(=O)[C@H]([C@@H](C)CC)NC(=O)[C@H]([C@@H](C)O)NC(=O)[C@H](CC(=O)O)NC1=O	> 3.33	> 100	> 100
CC[C@H](C)[C@@H]1NC(=O)[C@@H](NC(=O)[C@H](CO)NC(=O)[C@@H](N)CCCNC(=N)N)CSSC[C@@H](C(=O)O)NC(=O)[C@H]([C@@H](C)O)NC(=O)CNC(=O)[C@@H]2CSSC[C@@H]3NC(=O)[C@H](CCC(N)=O)NC(=O)[C@H](Cc4ccccc4)NC(=O)[C@H](C)NC(=O)[C@H]([C@@H](C)O)NC(=O)[C@H](CSSC[C@H](NC(=O)[C@H](Cc4ccccc4)NC(=O)[C@H](CO)NC(=O)[C@H](CCC(=O)O)NC(=O)[C@H](CCCNC(=N)N)NC(=O)[C@H](Cc4ccc(O)cc4)NC(=O)[C@H](CCCCN)NC(=O)[C@H](CCSC)NC(=O)[C@H](CO)NC(=O)[C@H](Cc4cnc[nH]4)NC(=O)[C@H](CCCCN)NC3=O)C(=O)N[C@@H](CCCNC(=N)N)C(=O)N[C@@H](CCCCN)C(=O)N[C@@H]([C@@H](C)O)C(=O)N2)NC(=O)[C@H](CCCNC(=N)N)NC(=O)[C@H](CO)NC(=O)[C@H](CCCCN)NC(=O)[C@@H]2CCCN2C(=O)[C@H]([C@@H](C)CC)NC(=O)[C@H]([C@@H](C)O)NC(=O)[C@H](CC(=O)O)NC1=O	0.245	0.494	0.678
CC[C@H](C)[C@@H]1NC(=O)[C@@H](NC(=O)[C@H](CO)NC(=O)[C@@H](N)CCCNC(=N)N)CSSC[C@@H](C(=O)O)NC(=O)[C@H]([C@@H](C)O)NC(=O)CNC(=O)[C@@H]2CSSC[C@@H]3NC(=O)[C@H](CCC(N)=O)NC(=O)[C@H](Cc4ccccc4)NC(=O)[C@H](C)NC(=O)[C@H]([C@@H](C)O)NC(=O)[C@H](CSSC[C@H](NC(=O)[C@H](CCC(=O)O)NC(=O)[C@H](CO)NC(=O)[C@H](CC(C)C)NC(=O)[C@H](CCCNC(=N)N)NC(=O)[C@H](Cc4ccc(O)cc4)NC(=O)[C@H](CCCCN)NC(=O)[C@H](CCSC)NC(=O)[C@H](CO)NC(=O)[C@H](Cc4cnc[nH]4)NC(=O)[C@H](CCCCN)NC3=O)C(=O)N[C@@H](CCCNC(=N)N)C(=O)N[C@@H](CCCCN)C(=O)N[C@@H]([C@@H](C)O)C(=O)N2)NC(=O)[C@H](CCCNC(=N)N)NC(=O)[C@H](CO)NC(=O)[C@H](CCCCN)NC(=O)[C@@H]2CCCN2C(=O)[C@H]([C@@H](C)CC)NC(=O)[C@H]([C@@H](C)O)NC(=O)[C@H](CC(=O)O)NC1=O	> 3.33	8.16	34
CC[C@H](C)[C@@H]1NC(=O)[C@@H](NC(=O)[C@H](CO)NC(=O)[C@@H](N)CCCNC(=N)N)CSSC[C@@H](C(=O)O)NC(=O)[C@H]([C@@H](C)O)NC(=O)CNC(=O)[C@@H]2CSSC[C@@H]3NC(=O)[C@H](CCC(N)=O)NC(=O)[C@H](Cc4ccccc4)NC(=O)[C@H](C)NC(=O)[C@H]([C@@H](C)O)NC(=O)[C@H](CSSC[C@H](NC(=O)[C@H](Cc4ccccc4)NC(=O)[C@H](CO)NC(=O)[C@H](CC(C)C)NC(=O)[C@H](CCCNC(=N)N)NC(=O)[C@H](Cc4ccc(O)cc4)NC(=O)[C@H](CCCCN)NC(=O)[C@H](CCSC)NC(=O)[C@H](CO)NC(=O)[C@H](Cc4cnc[nH]4)NC(=O)[C@H](CCCCN)NC3=O)C(=O)N[C@@H](CCCNC(=N)N)C(=O)N[C@@H](CCC(=O)O)C(=O)N[C@@H]([C@@H](C)O)C(=O)N2)NC(=O)[C@H](CCCNC(=N)N)NC(=O)[C@H](CO)NC(=O)[C@H](CCCCN)NC(=O)[C@@H]2CCCN2C(=O)[C@H]([C@@H](C)CC)NC(=O)[C@H]([C@@H](C)O)NC(=O)[C@H](CC(=O)O)NC1=O	0.278	0.02	0.043
CC[C@H](C)[C@@H]1NC(=O)[C@@H](NC(=O)[C@H](CO)NC(=O)[C@@H](N)CCCNC(=N)N)CSSC[C@@H](C(=O)O)NC(=O)[C@H]([C@@H](C)O)NC(=O)CNC(=O)[C@@H]2CSSC[C@@H]3NC(=O)[C@H](CCC(N)=O)NC(=O)[C@H](Cc4ccccc4)NC(=O)[C@H](C)NC(=O)[C@H]([C@@H](C)O)NC(=O)[C@H](CSSC[C@H](NC(=O)[C@H](Cc4ccccc4)NC(=O)[C@H](CO)NC(=O)[C@H](CC(C)C)NC(=O)[C@H](CCCNC(=N)N)NC(=O)[C@H](Cc4ccc(O)cc4)NC(=O)[C@H](CCCCN)NC(=O)[C@H](CCSC)NC(=O)[C@H](CO)NC(=O)[C@H](Cc4cnc[nH]4)NC(=O)[C@H](CCCCN)NC3=O)C(=O)N[C@@H](CCCNC(=N)N)C(=O)N[C@@H](CCCCN)C(=O)N[C@@H](CCC(=O)O)C(=O)N2)NC(=O)[C@H](CCCNC(=N)N)NC(=O)[C@H](CO)NC(=O)[C@H](CCCCN)NC(=O)[C@@H]2CCCN2C(=O)[C@H]([C@@H](C)CC)NC(=O)[C@H]([C@@H](C)O)NC(=O)[C@H](CC(=O)O)NC1=O	0.234	0.242	0.309
CC[C@H](C)[C@@H]1NC(=O)[C@@H](NC(=O)[C@H](CO)NC(=O)[C@@H](N)CCCNC(=N)N)CSSC[C@@H](C(=O)O)NC(=O)[C@H]([C@@H](C)O)NC(=O)CNC(=O)[C@@H]2CSSC[C@@H]3NC(=O)[C@H](CCC(N)=O)NC(=O)[C@H](Cc4ccccc4)NC(=O)[C@H](C)NC(=O)[C@H]([C@@H](C)O)NC(=O)[C@H](CSSC[C@H](NC(=O)[C@H](Cc4ccccc4)NC(=O)[C@H](CO)NC(=O)[C@H](CC(C)C)NC(=O)[C@H](CCCNC(=N)N)NC(=O)[C@H](Cc4ccc(O)cc4)NC(=O)[C@H](CCCCN)NC(=O)[C@H](CCSC)NC(=O)[C@H](CO)NC(=O)[C@H](Cc4cnc[nH]4)NC(=O)[C@H](CCCCN)NC3=O)C(=O)N[C@@H](CCCNC(=N)N)C(=O)N[C@@H](CCCCN)C(=O)N[C@@H]([C@@H](C)O)C(=O)N2)NC(=O)[C@H](CCCNC(=N)N)NC(=O)[C@H](CO)NC(=O)[C@H](CCCCN)NC(=O)[C@@H]2CCCN2C(=O)[C@H]([C@@H](C)CC)NC(=O)[C@H]([C@@H](C)O)NC(=O)[C@H](CCCNC(=N)N)NC1=O	> 3.33	40.5	91.7
